The results in this text go back to US20170000749A1, “Methods for Treating Cognitive Disorders Using Inhibitors of Histone Deacetylase” (Forum Pharmaceuticals, Inc., priority 2008, published 2017).

For assay [1], the target named is one or more of HDAC-1, HDAC-2, HDAC-3, HDAC-4, HDAC-5, HDAC-6, HDAC-7, HDAC-8, HDAC-9, HDAC-10 and HDAC-11. Briefly: Inhibition of Histone Deacetylase Enzymatic Activity (Boc-Lys(Ac)-AMC substrate, Fluor-de-Lys developer). It is filed as biochemical. The settings on record: read-out: HDAC Inhibition (IC50 μM) HDAC Enzyme. The method, then: The following protocol is used to assay the compounds of the disclosure.
The mixture is pre-incubated for 5 minutes at room temperature. The reaction is started by bringing the temperature to 37° C. and adding 16 μl substrate. Total reaction volume is 50 μl.
In the Tables 8, 9 and 10, A≦0.05 μM; 0.05 μM<B≦0.1 μM; 0.1 μM<C≦1 μM; and 1 μM<D≦10 μM.

Assay [2] relates to HDAC activity in primary mouse cortical cultures. Nature of the assay: Whole-Cell Histone Deacetylase (HDAC) Inhibition Assay in Primary Mouse Cortical Cultures. In kind it is cell-based. The following applies: whole-cell (WC), mouse cortical neurons, read-out: HDAC Inhibition (IC50 μM) WC mouse cortical neurons. In a few lines:
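Primary neocortical neurons from E17 Balb/C mouse embryos were plated at 50000 cells/well and treated at DIV9 with ten-point DMSO dilutions for 16-18 h at 37° C, in triplicate. BOC-Lys(Ac)-AMC substrate was then added for 1 h. Fluor de Lys developer containing 1 uM TSA produced a fluorophore, which was read.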

Like-named read-outs stand apart in the source and are kept apart here.

Turning to `Cc1ccc2c(c1)N=C(c1ccc(C(=O)NO)cc1)c1ccccc1O2` [(Z)—N-hydroxy-4-(8-methyldibenzo[b,f][1,4]oxazepin-11-yl)benzamide], the IC50 in assay [1] (Table 8) was 0.05 to 0.1 µM; in assay [2] (Table 8), 1 to 5 µM.
Regarding `O=C(NO)c1cnc(N2CCn3c(nnc3C(F)(F)F)C2)nc1` [N-hydroxy-2-(3-(trifluoromethyl)-5,6-dihydro-[1,2,4]triazolo[4,3-a]pyrazin-7(8H)-yl)pyrimidine-5-carboxamide], the values for the IC50 in assay [1] (Table 10) and in assay [2] (Table 10) were 0.05 to 0.1 µM and 1 to 5 µM, respectively.
The matching figures for `O=C(NO)c1cnc(N2CCn3c(nnc3-c3ccccc3)C2)nc1` [N-hydroxy-2-(3-phenyl-5,6-dihydro-[1,2,4]triazolo[4,3-a]pyrazin-7(8H)-yl)pyrimidine-5-carboxamide]: under 0.05 µM and 1 to 5 µM.
Turning to `O=C(Cc1ccc(CN2C(=O)c3ccccc3Oc3ccccc32)cc1)NO` [N-hydroxy-2-(4-((11-oxodibenzo[b,f][1,4]oxazepin-10(11H)-yl)methyl)phenyl)acetamide], the IC50 in assay [1] (Table 10) was in the range of 0.1 to 1 µM; in assay [2] (Table 10) it was 1 to 5 µM.
Regarding `O=C(NO)c1cnc(N2CC3CC(CN(c4cc(C(F)(F)F)ccn4)C3)C2)nc1` [N-hydroxy-2-(7-(4-(trifluoromethyl)pyridin-2-yl)-3,7-diazabicyclo[3.3.1]nonan-3-yl)pyrimidine-5-carboxamide], the IC50 in assay [1] (Table 9) was 0.1 to 1 µM; in assay [2] (Table 9), over 15 µM.
Turning to `O=C(NO)c1cnc(N2C[C@H]3C[C@@H]2CN3c2cc(C(F)(F)F)ccn2)nc1` [N-hydroxy-2-((1R,4R)-5-(4-(trifluoromethyl)pyridin-2-yl)-2,5-diazabicyclo[2.2.1]heptan-2-yl)pyrimidine-5-carboxamide], the IC50 in assay [1] (Table 9) was under 0.05 µM; in assay [2] (Table 9), under 1 µM.
On the same counts, the results for `Cc1cccc(N2C[C@H]3C[C@@H]2CN3c2ncc(C(=O)NO)cn2)c1` [N-hydroxy-2-((1R,4R)-5-m-tolyl-2,5-diazabicyclo[2.2.1]heptan-2-yl)pyrimidine-5-carboxamide] are 0.05 to 0.1 µM and under 1 µM.
Consider `Cc1ccc(N2C[C@H]3C[C@@H]2CN3c2ncc(C(=O)NO)cn2)cc1` [N-hydroxy-2-((1R,4R)-5-p-tolyl-2,5-diazabicyclo[2.2.1]heptan-2-yl)pyrimidine-5-carboxamide], for which the results for the IC50 in assay [1] (Table 9) and in assay [2] (Table 9) were under 0.05 µM and under 1 µM, respectively.
Turning to `O=C(NO)c1cnc(N2C[C@@H]3C[C@H]2CN3c2ccccc2C(F)(F)F)nc1` [N-hydroxy-2-((1S,4S)-5-(2-(trifluoromethyl)phenyl)-2,5-diazabicyclo[2.2.1]heptan-2-yl)pyrimidine-5-carboxamide], the values for the IC50 in assay [1] (Table 9) and in assay [2] (Table 9) were 0.1 to 1 µM and 1 to 5 µM, respectively.
The matching figures for `O=C(NO)c1cnc(N2C[C@@H]3C[C@H]2CN3c2cc(C(F)(F)F)nc3ccccc23)nc1` [N-hydroxy-2-((1S,4S)-5-(2-(trifluoromethyl)quinolin-4-yl)-2,5-diazabicyclo[2.2.1]heptan-2-yl)pyrimidine-5-carboxamide]: under 0.05 µM and under 1 µM.
Regarding `O=C(NO)c1cnc(N2C[C@@H]3C[C@H]2CN3c2cccc(OC(F)(F)F)c2)nc1` [N-hydroxy-2-((1S,4S)-5-(3-(trifluoromethoxy)phenyl)-2,5-diazabicyclo[2.2.1]heptan-2-yl)pyrimidine-5-carboxamide], the IC50 in assay [1] (Table 9) was under 0.05 µM; in assay [2] (Table 9), under 1 µM.
On the same counts, the results for `O=C(NO)c1cnc(N2C[C@@H]3C[C@H]2CN3C(=O)c2cccc(C(F)(F)F)c2)nc1` [N-hydroxy-2-((1S,4S)-5-(3-(trifluoromethyl)benzoyl)-2,5-diazabicyclo[2.2.1]heptan-2-yl)pyrimidine-5-carboxamide] are 0.05 to 0.1 µM and 1 to 5 µM.
Consider `O=C(NO)c1cnc(N2C[C@@H]3C[C@H]2CN3c2cccc(C(F)(F)F)c2)nc1` [N-hydroxy-2-((1S,4S)-5-(3-(trifluoromethyl)phenyl)-2,5-diazabicyclo[2.2.1]heptan-2-yl)pyrimidine-5-carboxamide], for which the IC50 in assay [1] (Table 9) was under 0.05 µM; in assay [2] (Table 9), under 1 µM.
The matching figures for `O=C(NO)c1cnc(N2C[C@@H]3C[C@H]2CN3c2cccc(C(F)(F)F)c2)s1` [N-hydroxy-2-((1S,4S)-5-(3-(trifluoromethyl)phenyl)-2,5-diazabicyclo[2.2.1]heptan-2-yl)thiazole-5-carboxamide]: under 0.05 µM and 1 to 5 µM.
Take `O=C(NO)c1cnc(N2C[C@@H]3C[C@H]2CN3c2cccc(SC(F)(F)F)c2)nc1` [N-hydroxy-2-((1S,4S)-5-(3-(trifluoromethylthio)phenyl)-2,5-diazabicyclo[2.2.1]heptan-2-yl)pyrimidine-5-carboxamide]: the IC50 in assay [1] (Table 9) is under 0.05 µM; in assay [2] (Table 9), 1 to 5 µM.
The matching figures for `COc1cccc(N2C[C@@H]3C[C@H]2CN3c2ncc(C(=O)NO)cn2)c1` [N-hydroxy-2-((1S,4S)-5-(3-methoxyphenyl)-2,5-diazabicyclo[2.2.1]heptan-2-yl)pyrimidine-5-carboxamide]: under 0.05 µM and under 1 µM.
For the molecule `O=C(NO)c1cnc(N2C[C@@H]3C[C@H]2CN3c2ccc(C(F)(F)F)cc2)nc1` [N-hydroxy-2-((1S,4S)-5-(4-(trifluoromethyl)phenyl)-2,5-diazabicyclo[2.2.1]heptan-2-yl)pyrimidine-5-carboxamide], the IC50 in assay [1] (Table 9) is under 0.05 µM; in assay [2] (Table 9) it was 1 to 5 µM.
The matching figures for `O=C(NO)c1cnc(N2C[C@@H]3C[C@H]2CN3c2cc(C(F)(F)F)ccn2)nc1` [N-hydroxy-2-((1S,4S)-5-(4-(trifluoromethyl)pyridin-2-yl)-2,5-diazabicyclo[2.2.1]heptan-2-yl)pyrimidine-5-carboxamide]: under 0.05 µM and under 1 µM.
On to `O=C(NO)c1cnc(N2C[C@@H]3C[C@H]2CN3c2nccc(C(F)(F)F)n2)nc1` [N-hydroxy-2-((1S,4S)-5-(4-(trifluoromethyl)pyrimidin-2-yl)-2,5-diazabicyclo[2.2.1]heptan-2-yl)pyrimidine-5-carboxamide], for which the values for the IC50 in assay [1] (Table 9) and in assay [2] (Table 9) were under 0.05 µM and under 1 µM, respectively.
The matching figures for `O=C(NO)c1cnc(N2C[C@@H]3C[C@H]2CN3c2cncc(C(F)(F)F)c2)nc1` [N-hydroxy-2-((1S,4S)-5-(5-(trifluoromethyl)pyridin-3-yl)-2,5-diazabicyclo[2.2.1]heptan-2-yl)pyrimidine-5-carboxamide]: under 0.05 µM and under 1 µM.
The matching figures for `O=C(NO)c1cnc(N2C[C@@H]3C[C@H]2CN3c2cccc(C(F)(F)F)n2)nc1` [N-hydroxy-2-((1S,4S)-5-(6-(trifluoromethyl)pyridin-2-yl)-2,5-diazabicyclo[2.2.1]heptan-2-yl)pyrimidine-5-carboxamide]: under 0.05 µM and under 1 µM.
Turning to `O=C(NO)c1cnc(N2C[C@@H]3C[C@H]2CN3C(=O)N2CCCC2)nc1` [N-hydroxy-2-((1S,4S)-5-(pyrrolidine-1-carbonyl)-2,5-diazabicyclo[2.2.1]heptan-2-yl)pyrimidine-5-carboxamide], the IC50 is 0.05 to 0.1 µM in assay [1] (Table 9) and under 1 µM in assay [2] (Table 9).
On the same counts, the results for `Cc1cccc(N2C[C@@H]3C[C@H]2CN3c2ncc(C(=O)NO)cn2)c1` [N-hydroxy-2-((1S,4S)-5-m-tolyl-2,5-diazabicyclo[2.2.1]heptan-2-yl)pyrimidine-5-carboxamide] are under 0.05 µM and under 1 µM.
On the same counts, the results for `Cc1ccccc1N1C[C@@H]2C[C@H]1CN2c1ncc(C(=O)NO)cn1` [N-hydroxy-2-((1S,4S)-5-o-tolyl-2,5-diazabicyclo[2.2.1]heptan-2-yl)pyrimidine-5-carboxamide] are 0.05 to 0.1 µM and 1 to 5 µM.
The matching figures for `Cc1ccc(N2C[C@@H]3C[C@H]2CN3c2ncc(C(=O)NO)cn2)cc1` [N-hydroxy-2-((1S,4S)-5-p-tolyl-2,5-diazabicyclo[2.2.1]heptan-2-yl)pyrimidine-5-carboxamide]: under 0.05 µM and under 1 µM.
Turning to `O=C(NO)c1cnc(N2C[C@@H]3C[C@H]2CN3c2ccccc2)nc1` [N-hydroxy-2-((1S,4S)-5-phenyl-2,5-diazabicyclo[2.2.1]heptan-2-yl)pyrimidine-5-carboxamide], the IC50 in assay [1] (Table 9) is 0.05 to 0.1 µM; in assay [2] (Table 9) it was under 1 µM.
As to `O=C(CCn1cc(CN2C(=O)c3ccccc3Oc3ccccc32)nn1)NO` [N-hydroxy-3-(4-((11-oxodibenzo[b,f][1,4]oxazepin-10(11H)-yl)methyl)-1H-1,2,3-triazol-1-yl)propanamide], the IC50 is 0.1 to 1 µM in assay [1] (Table 10) and 1 to 5 µM in assay [2] (Table 10).
The matching figures for `O=C(CCc1ccc(CN2C(=O)c3ccccc3Oc3ccccc32)cc1)NO` [N-hydroxy-3-(4-((11-oxodibenzo[b,f][1,4]oxazepin-10(11H)-yl)methyl)phenyl)propanamide]: 0.1 to 1 µM and 1 to 5 µM.
On the same counts, the results for `O=C(NO)c1ccc(C#CCN2C(=O)c3ccccc3Oc3ccccc32)cc1` [N-hydroxy-4-(3-(11-oxodibenzo[b,f][1,4]oxazepin-10(11H)-yl)prop-1-ynyl)benzamide] are under 0.05 µM and 1 to 5 µM.
On the same counts, the results for `O=C(NO)c1ccc(CCCN2C(=O)c3ccccc3Oc3ccccc32)cc1` [N-hydroxy-4-(3-(11-oxodibenzo[b,f][1,4]oxazepin-10(11H)-yl)propyl)benzamide] are 0.05 to 0.1 µM and under 1 µM.
